{"source": "PubChem BioAssay (NCI)", "note": "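Each compound was tested at five concentrations against cells in 96-well plates for 48 hours. GI50 = concentration required for 50% inhibition of growth. TGI: concentration producing complete growth inhibition.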 Where a SMILES comes first, the peptide text is derived from it. The star is where a group is joined. Cbz = O=C(OCc1ccccc1)*; CH2Cl = ClC*"}
{"tested_on": "LOX IMVI melanoma", "assay": "NCI-60 cell line screen, 48 h", "units": {"GI50": "µM", "TGI": "µM"}}
{"smiles": "O=C(Nc1ccncc1)C(=O)c1cn(S(=O)(=O)c2ccc(F)cc2)c2ccccc12", "GI50": 2.22, "TGI": "> 100"}
{"smiles": "COc1c(OC[C@H](O)CN2CCOCC2)ccc2c3n(c(=NC(=O)c4cccnc4C)nc12)CCN3", "GI50": 1.57, "TGI": "> 50"}
{"smiles": "O=C(c1ccccc1Br)C(F)(F)F", "TGI": "> 100"}
{"smiles": "COc1ccc(-c2nc3ccc(-c4nc5ccc(N6CCN(c7ccccc7)CC6)cc5[nH]4)cc3[nH]2)cc1OC", "GI50": 0.357, "TGI": 1.34}
{"smiles": "O=C(N[C@@H](c1ccc(Cl)c(Cl)c1)C1CNC1)c1ccc2cnccc2c1", "GI50": 0.716, "TGI": 3.71}
{"smiles": "CO/N=C(\\COc1ccc2c(c1)oc(=O)c1cc(OC)ccc12)c1ccc(OC)cc1", "GI50": "> 100", "TGI": "> 100"}
{"smiles": "O=C1OCC2=C1C(c1cccc(Br)c1)c1cc3c(cc1N2CCO)CCC3", "note": "(stereo unspecified)", "GI50": 0.119, "TGI": 7.56}
{"smiles": "Nc1nc(/C=C\\c2ccc([N+](=O)[O-])s2)nc(N2CCCC2)n1", "GI50": 0.198, "TGI": 2.41}
{"smiles": "Clc1ccc2[nH]cc(-c3nnnn3-c3ccccc3)c2c1", "GI50": 10.5, "TGI": "> 53.5"}
{"smiles": "Oc1cccnc1[Se]", "TGI": "> 100"}
{"smiles": "CC(C)Oc1ccc2cc(-c3nn(CC4CCNCC4)c4ncnc(N)c34)ccc2c1", "GI50": 16.7, "TGI": 33.8}
{"smiles": "CS(=O)(=O)CCNCc1nc(-c2ccc3ncnc(Nc4ccc(OCc5cccc(C(F)(F)F)c5)cc4)c3c2)cs1", "GI50": "> 25", "TGI": "> 25"}
{"smiles": "CC(C)CC(NC(=O)OCc1ccccc1)C(=O)NC(Cc1ccccc1)C(=O)CCl", "note": "(stereo not drawn) (Cbz-Leu-Phe-CH2Cl; configuration not given here)", "TGI": 2.08}
{"smiles": "[Cl][Hg][c]1cc[c]([Hg][Cl])o1", "GI50": 0.707, "TGI": 4.27}
{"smiles": "O=C1/C(=C/c2cccc(Cl)c2Cl)N=C(c2ccccc2)N1C1CC1", "GI50": 7.11, "TGI": 17.4}
{"smiles": "CCOC(=O)C(Cc1ccc(CCCC(=O)NCCC(=O)Nc2ccc3nc(C)sc3c2)cc1)C(=O)OCC", "GI50": 33.2, "TGI": "> 100"}
{"smiles": "NCCNc1c2c(c(NCCN)c3[nH]ccc13)C(=O)c1ccccc1C2=O", "GI50": 0.0111, "TGI": 0.242}
{"smiles": "COc1cc(Cn2c(-c3ccccc3)c(Cl)c3c2-c2oncc2CC3)cc(OC)c1", "GI50": 3.06, "TGI": 12}
{"smiles": "COc1ccc(-c2nn(-c3ccc(NC(=O)c4ccc(Cl)c(Cl)c4)cc3)cc2-c2ccncc2)cc1Cl", "GI50": 0.951, "TGI": 2.17}
{"smiles": "COc1cc2c3c(n(C)c(=O)c2cc1OC)-c1cc2c(cc1/C3=C\\CN)OCO2", "GI50": 0.133, "TGI": 1.46}
{"smiles": "CN(C)C(n1cc2c(c1)-c1ccc(Cl)cc1C(c1ccccc1F)=NC2)n1cc2c(c1)-c1ccc(Cl)cc1C(c1ccccc1F)=NC2", "TGI": 47.9}
{"smiles": "COc1ccc(/C=C2/N=C(c3ccccc3)N(c3c(C)n(C)n(-c4ccccc4)c3=O)C2=O)cc1OC", "GI50": "> 100", "TGI": "> 100"}
{"smiles": "C[C@@H]1CC[C@@H]2[C@@H]1[C@H](OC(=O)/C=C/c1ccccc1)[C@]1(C3CCCCC3)C[C@@H](OC(=O)CO)[C@@]2(C)O1", "GI50": 1.67, "TGI": 3.27}
{"smiles": "CCCN1C(=O)N(CCC)C2C1NC(=S)N2/N=C/C=C/c1ccccc1OC", "note": "(stereo unspecified)", "GI50": 0.627, "TGI": 21.3}
{"smiles": "CCn1c2ccccc2c2cc(NC(=O)Nc3ccc([N+](=O)[O-])cc3C)ccc21", "GI50": 4.98, "TGI": "> 100"}
{"smiles": "COc1cc2c(cc1OCCCNC(=O)c1cccc3c(=O)c4ccccc4[nH]c13)N=C[C@@H]1CCCN1C2=O", "GI50": "< 0.01"}
{"smiles": "COc1cccc2c1C(=O)c1c(O)c3c(c(O)c1C2=O)C[C@](O)(C(=O)CO)C[C@H]3O[C@@H]1C[C@@H](NC(=O)CCCCCN(C)C2(c3ccc(F)cc3)CC3CCC2C3)[C@H](O)[C@@H](C)O1", "note": "(stereo partly specified)", "GI50": 5.17, "TGI": 13.1}
{"smiles": "CCSc1ncnc2c1ncn2C1OC(CO)C(O)C1O", "note": "(stereo unspecified)", "GI50": 0.0945, "TGI": 16.8}
{"smiles": "COc1ccc2c(c1)C(=O)c1c-2c(N2CCN(C(=O)CNCCNCCO)CC2)nc2ccccc12", "GI50": 2.18, "TGI": 4.72}
{"smiles": "COc1ccc(Nc2nnc(-c3cc(O)ccc3O)s2)cc1", "GI50": 25.7, "TGI": "> 50"}
{"tested_on": "MOLT-4 leukemia", "assay": "NCI-60 cell line screen, 48 h", "units": {"GI50": "µM", "TGI": "µM"}}
{"smiles": "O=C(Nc1ccncc1)C(=O)c1cn(S(=O)(=O)c2ccc(F)cc2)c2ccccc12", "GI50": 5.22, "TGI": "> 100"}
{"smiles": "COc1c(OC[C@H](O)CN2CCOCC2)ccc2c3n(c(=NC(=O)c4cccnc4C)nc12)CCN3", "GI50": 0.305, "TGI": "> 50"}
{"smiles": "O=C(c1ccccc1Br)C(F)(F)F", "TGI": "> 100"}
{"smiles": "COc1ccc(-c2nc3ccc(-c4nc5ccc(N6CCN(c7ccccc7)CC6)cc5[nH]4)cc3[nH]2)cc1OC", "GI50": 1.37, "TGI": 6.47}
{"smiles": "O=C(N[C@@H](c1ccc(Cl)c(Cl)c1)C1CNC1)c1ccc2cnccc2c1", "GI50": 0.106, "TGI": 6.18}
{"smiles": "CO/N=C(\\COc1ccc2c(c1)oc(=O)c1cc(OC)ccc12)c1ccc(OC)cc1", "GI50": "> 100", "TGI": "> 100"}
{"smiles": "O=C1OCC2=C1C(c1cccc(Br)c1)c1cc3c(cc1N2CCO)CCC3", "note": "(stereo unspecified)", "GI50": 0.262, "TGI": 14.2}
{"smiles": "Nc1nc(/C=C\\c2ccc([N+](=O)[O-])s2)nc(N2CCCC2)n1", "GI50": 2.16, "TGI": 12.1}
{"smiles": "Clc1ccc2[nH]cc(-c3nnnn3-c3ccccc3)c2c1", "GI50": 11, "TGI": "> 53"}
{"smiles": "Oc1cccnc1[Se]", "TGI": "> 100"}
{"smiles": "CC(C)Oc1ccc2cc(-c3nn(CC4CCNCC4)c4ncnc(N)c34)ccc2c1", "GI50": 1.97, "TGI": 5.95}
{"smiles": "CS(=O)(=O)CCNCc1nc(-c2ccc3ncnc(Nc4ccc(OCc5cccc(C(F)(F)F)c5)cc4)c3c2)cs1", "GI50": "> 25", "TGI": "> 25"}
{"smiles": "CC(C)CC(NC(=O)OCc1ccccc1)C(=O)NC(Cc1ccccc1)C(=O)CCl", "note": "(stereo not drawn) (Cbz-Leu-Phe-CH2Cl; configuration not given here)", "TGI": 4.33}
{"smiles": "[Cl][Hg][c]1cc[c]([Hg][Cl])o1", "GI50": 1.58, "TGI": 8.59}
{"smiles": "O=C1/C(=C/c2cccc(Cl)c2Cl)N=C(c2ccccc2)N1C1CC1", "GI50": 19.2, "TGI": "> 50"}
{"smiles": "CCOC(=O)C(Cc1ccc(CCCC(=O)NCCC(=O)Nc2ccc3nc(C)sc3c2)cc1)C(=O)OCC", "GI50": 21.3, "TGI": 54.5}
{"smiles": "NCCNc1c2c(c(NCCN)c3[nH]ccc13)C(=O)c1ccccc1C2=O", "GI50": "< 0.01", "TGI": 0.0437}
{"smiles": "COc1cc(Cn2c(-c3ccccc3)c(Cl)c3c2-c2oncc2CC3)cc(OC)c1", "GI50": 3.43, "TGI": "> 100"}
{"smiles": "COc1ccc(-c2nn(-c3ccc(NC(=O)c4ccc(Cl)c(Cl)c4)cc3)cc2-c2ccncc2)cc1Cl", "GI50": 2.3, "TGI": "> 50"}
{"smiles": "COc1cc2c3c(n(C)c(=O)c2cc1OC)-c1cc2c(cc1/C3=C\\CN)OCO2", "GI50": "< 0.0208", "TGI": 0.433}
{"smiles": "CN(C)C(n1cc2c(c1)-c1ccc(Cl)cc1C(c1ccccc1F)=NC2)n1cc2c(c1)-c1ccc(Cl)cc1C(c1ccccc1F)=NC2", "TGI": "> 100"}
{"smiles": "COc1ccc(/C=C2/N=C(c3ccccc3)N(c3c(C)n(C)n(-c4ccccc4)c3=O)C2=O)cc1OC", "GI50": 78.3, "TGI": "> 100"}
{"smiles": "C[C@@H]1CC[C@@H]2[C@@H]1[C@H](OC(=O)/C=C/c1ccccc1)[C@]1(C3CCCCC3)C[C@@H](OC(=O)CO)[C@@]2(C)O1", "GI50": 2.61, "TGI": 6.07}
{"smiles": "CCCN1C(=O)N(CCC)C2C1NC(=S)N2/N=C/C=C/c1ccccc1OC", "note": "(stereo unspecified)", "GI50": 0.576, "TGI": "> 66.2"}
{"smiles": "CCn1c2ccccc2c2cc(NC(=O)Nc3ccc([N+](=O)[O-])cc3C)ccc21", "GI50": 1.29, "TGI": 3.85}
{"smiles": "COc1cc2c(cc1OCCCNC(=O)c1cccc3c(=O)c4ccccc4[nH]c13)N=C[C@@H]1CCCN1C2=O", "GI50": 4.03, "TGI": "> 100"}
{"smiles": "COc1cccc2c1C(=O)c1c(O)c3c(c(O)c1C2=O)C[C@](O)(C(=O)CO)C[C@H]3O[C@@H]1C[C@@H](NC(=O)CCCCCN(C)C2(c3ccc(F)cc3)CC3CCC2C3)[C@H](O)[C@@H](C)O1", "note": "(stereo partly specified)", "GI50": 0.304, "TGI": 2.61}
{"smiles": "CCSc1ncnc2c1ncn2C1OC(CO)C(O)C1O", "note": "(stereo unspecified)", "GI50": 0.173, "TGI": "> 87.1"}
{"smiles": "COc1ccc2c(c1)C(=O)c1c-2c(N2CCN(C(=O)CNCCNCCO)CC2)nc2ccccc12", "GI50": 2.19, "TGI": 6.61}
{"smiles": "COc1ccc(Nc2nnc(-c3cc(O)ccc3O)s2)cc1", "GI50": 6.5, "TGI": 20.6}
